Measurements taken from US12152038B2, “Vasopressin receptor antagonists and products and methods related thereto” (Neumora Therapeutics, Inc., priority 2017, dated 2024).

Columns and labels:
[1] = molecular target: T1, human Arginine Vasopressin Receptor 1b (AVPR1b) (Homo sapiens, UniProt P47901); assay: Vasopressin V1b receptor antagonist assay (FLIPR calcium, CHO-AVPR1b cells); assay type: cell-based
T1 construct: expressed in transfected cells; host or cells: CHO (CHO-AVPR1b, kept under G418 selection)
T1 sequence (P47901 1-424): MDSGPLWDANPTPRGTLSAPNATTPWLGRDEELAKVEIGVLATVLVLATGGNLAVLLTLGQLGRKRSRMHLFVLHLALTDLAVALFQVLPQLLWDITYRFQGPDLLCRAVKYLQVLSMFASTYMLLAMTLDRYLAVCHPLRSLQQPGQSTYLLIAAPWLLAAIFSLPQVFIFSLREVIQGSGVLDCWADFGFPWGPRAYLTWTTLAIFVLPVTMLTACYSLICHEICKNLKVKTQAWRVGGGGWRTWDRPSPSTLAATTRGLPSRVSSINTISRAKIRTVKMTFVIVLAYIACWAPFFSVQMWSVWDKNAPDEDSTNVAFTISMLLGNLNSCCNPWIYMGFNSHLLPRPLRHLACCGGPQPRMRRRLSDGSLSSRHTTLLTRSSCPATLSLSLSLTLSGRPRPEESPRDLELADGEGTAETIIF
Description: The purpose of the assay was to determine the inhibitory effect of synthesized compounds on the Vasopressin V1b receptor. The assay was performed in Chinese Hamster Ovary (CHO) cells expressing the human Arginine Vasopressin Receptor 1b (AVPR1b). Arginine Vasopressin (AVP) evokes an increase in intracellular calcium in CHO-AVPR1b cells which is measured in a fluorescence assay on the FLIPR^TETRA using calcium sensitive dyes. Test compounds were assessed for their ability to affect the magnitude of the response to AVP, with antagonists showing a concentration-dependent reduction in the AVP-mediated fluorescence.
CHO-AVPR1b cells were maintained in routine culture in T175 Flasks at 37° C., 5% CO2. The growth medium consisted of Ham's F12 media supplemented with 10% v/v fetal bovine serum, 1× non-essential amino acids, and 0.4 mg/ml Geneticin G418.
(§1) Cells were harvested from T175 flasks when they were 80-90% confluent by first washing the cell monolayer with PBS and then dissociated using trypsin 0.05%/EDTA (3 mL for a T175 Flask). The flasks were incubated at room temperature until the cells detached. To the cell suspension, 10 ml of growth media was added and the cell density determined using the Vi-Cell automated cell counter. The cells were spun at 1000 rpm for 3 minutes, then the supernatant was carefully removed and discarded. The cell pellet was re-suspended at 6.0e^5 cells/ml in growth media. 25 μL of cells in growth media was dispensed into each well (15,000 cells per well) of a poly-D-lysine coated black, clear bottomed, 384-well plate. The plates were incubated at 37° C., 5% CO2 overnight.
(§2) At the start of each assay day, the potency of AVP was assessed and an EC80 concentration determined for subsequent compound profiling. Assays were performed using a two-step addition protocol on the FLIPR^TETRA; first addition of 5 μl of control or test compound at 10× final in assay buffer with 15 min incubation at 37° C., 5% CO2 followed by 10 μl of AVP at 6× final concentration in assay buffer. Changes in fluorescence were monitored for 3 min after both additions on the FLIPR^TETRA using 470-495 nm excitation and 515-575 nm emission wavelengths. The assay buffer consisted of HBSS (+Ca/+Mg) supplemented with 20 mM HEPES, and for the preparation of the AVP agonist only, 0.1% w/v bovine serum albumin. The assay was initiated by the removal of growth media from the cells and replacement with 45 μl of Calcium-6 dye (Molecular Devices) prepared at 1× in assay buffer. Cells were loaded with dye for 60-90 min at 37° C., 5% CO2 before initiation of the FLIPR^TETRA protocol. […] For compound profiling, test compounds were first serially diluted in DMSO (10-point curve, 1:3 dilutions) then diluted 33.3-fold in assay buffer prior to addition to the dye loaded cells on the FLIPR^TETRA. At the end of the incubation period 10 μl of AVP in assay buffer containing 0.1% BSA was added at the previously determined EC80 concentration.
In-plate controls for the assay included a Nelivaptan concentration-response curve as the reference V1b antagonist and an AVP concentration-response curve to confirm the reproducibility of the EC80 used for the compound challenge.

[2] = molecular target: T2, human Arginine Vasopressin Receptor 1a (AVPR1a) (Homo sapiens, UniProt P37288); assay: Vasopressin V1a receptor antagonist assay (FLIPR calcium, CHO-AVPR1a cells); assay type: cell-based
T2 construct: expressed in transfected cells; host or cells: CHO (CHO-AVPR1a, kept under G418 selection)
T2 sequence (P37288 whole entry): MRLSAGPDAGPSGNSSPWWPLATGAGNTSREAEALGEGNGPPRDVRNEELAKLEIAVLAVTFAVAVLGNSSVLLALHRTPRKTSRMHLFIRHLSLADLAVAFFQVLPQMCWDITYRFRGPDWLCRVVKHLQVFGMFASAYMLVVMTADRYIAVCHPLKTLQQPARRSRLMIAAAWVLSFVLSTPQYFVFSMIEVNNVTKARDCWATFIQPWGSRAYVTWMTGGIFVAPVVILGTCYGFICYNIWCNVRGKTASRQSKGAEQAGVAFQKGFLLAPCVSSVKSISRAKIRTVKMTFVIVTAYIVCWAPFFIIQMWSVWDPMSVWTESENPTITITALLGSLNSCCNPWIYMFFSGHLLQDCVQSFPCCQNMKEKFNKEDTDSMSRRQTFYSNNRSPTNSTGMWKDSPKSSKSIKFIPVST
Description: The purpose of this assay was to determine the inhibitory effect of synthesized compounds on the Vasopressin V1a receptor. The assay was performed in Chinese Hamster Ovary (CHO) cells expressing the human Arginine Vasopressin Receptor 1a (AVPR1a). Arginine Vasopressin (AVP) evokes an increase in intracellular calcium in CHO-AVPR1a cells which is measured in a fluorescence assay on the FLIPR^TETRA using calcium sensitive dyes. Test compounds were assessed for their ability to affect the magnitude of the response to AVP, with antagonists showing a concentration-dependent reduction in the AVP-mediated fluorescence. Compounds were tested in duplicate in a 10-point, 1:3 dilution series starting at a nominal concentration of 3 μM in the assay.
CHO-AVPR1a cells were maintained in routine culture in T175 Flasks at 37° C., 5% CO2. The growth medium consists of Ham's F12 media supplemented with 10% v/v fetal bovine serum, 1× non-essential amino acids, and 0.4 mg/ml Geneticin G418.
as §1, with “On day one, cells were” for “Cells were”, “they are” for “they were”
as §2, with “period,” for “period”
In-plate controls for the assay included balovaptan and PF-184563 concentration-response curves as reference V1a antagonists, and an AVP concentration-response curve to confirm the reproducibility of the EC80 used for the compound challenge.

Compound	IC50 [1] [nM]	IC50 [2] [nM]
CC1COc2cc(Cl)ccc2N1C(=O)N1CC2(C1)CN(c1ncc(F)cn1)C2 (centres unmarked) [18-2]		< 100
Cc1ccnc(N2CC3(CN(C(=O)N4c5ccc(F)cc5OCC4C)C3)C2)c1 (centres unmarked) [20-4]		< 100
Cc1cnc(N2CC3(CN(C(=O)N4c5ccc(Cl)cc5OCC4C)C3)C2)cn1 (centres unmarked) [20-5]		< 100
CC1COc2cc(Cl)ccc2N1C(=O)N1CC2(C1)CN(c1cc(=O)n(C)cn1)C2 (centres unmarked) [20-14]		100 to 500
CC1COc2cc(Cl)ccc2N1C(=O)N1CC2(C1)CN(c1ncc(C3CC3)cn1)C2 (centres unmarked) [21-7]		100 to 500

More lines, now with the values ahead:

IC50 [1] [nM]	IC50 [2] [nM]	Compound
≥ 1000	< 100	O=C(N1CC2(C1)CN(c1ncccc1F)C2)N1CCOc2cc(Cl)ccc21 [1-1, (7-chloro-2,3-dihydro-4H-benzo[b][1,4]oxazin-4-yl)(6-(3-fluoropyridin-2-yl)-2,6-diazaspiro[3.3]heptan-2-yl)methanone]
	< 100	COC1CCN(C(=O)N2CC3(C2)CN(c2ccc(F)cn2)C3)c2ccc(Cl)cc21 (centres unmarked) [16-1, (6-chloro-4-methoxy-3,4-dihydroquinolin-1(2H)-yl)(6-(5-fluoropyridin-2-yl)-2,6-diazaspiro[3.3]heptan-2-yl)methanone]
